The target in one series is full length NS3/4a (Hepatitis C virus genotype 1b (isolate BK) (HCV), UniProt P26663). The experiment in a line: NS3 Protease Assay (Example A), FRET-based. The series is classed as biochemical. Summed up:
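Initial rates were taken from fluorescence progress curves over 30 min at room temperature, and IC50 was fitted across replicates. In-house full-length NS3/4a cleaved a FRET peptide (5-FAMsp/QXL520) from the NS4A/B site. Medium: 50 mM Tris pH8, 20 mM DTT, 1% CHAPS, 10% glycerol, 5% DMSO.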

Series [1] is described as follows: Replicon Assay (Example B), Alamar Blue cytotoxicity CC50. Particulars: human, lower value of the cell pair. The series is classed as cell-based. An excerpt:
(§1) Thus, Huh-7 cells persistently infected with an HCV-RNA construct (Bartenschlager, R. Hepatitis C replicons: potential role for drug development. Nature Rev. Drug Discov. 1, 911-916 (2002)) comprising: 5′ and 3′ non-translated regions (NTR); the non-structural genes NS3 to NS5b; as well as the G418 drug resistance gene, neomycin, (for selection of cells carrying HCV replicon RNA) fused to the firefly Luciferase reporter gene (pFKI3889Iuc-ubi-neo/NS3-3′/ET) were used to determine the cell based antiviral activity of compounds using luciferase activity as an indirect readout of HCV RNA load. In this assay […] huh-7 cells persistently infected with the HCV subgenomic replicon construct above were plated/well in a 96 well tissue culture plate. The cells were allowed to attach overnight in DMEM medium supplemented with 10% FBS 1% NEAA, and 250 μg/ml gentamicin. The following day the medium was replaced with 200 μl/well of fresh medium as described above lacking gentamicin. Semilog dilutions of compounds in medium were then added to triplicate wells (non-edge) of the cultured cells to give a 0.1% DMSO final concentration. Plates were then incubated at 37° C. in an atmosphere of 5% CO2 and air for 72 h. […] The plate was then read at 535 nm (excitation) and 590 nm (emission) on a SpectraMax Gemini reader (Molecular Devices) to determine the number of viable cells by measuring the conversion of rezasurin (Alamar blue) to resorufin in response to mitochondrial activity. In order to determine the antiviral effect of these compounds EC50 values were determined by measuring the luciferase activity of the cells. Alamar blue solution was removed from the wells and replaced with 100 μl/well of medium along with 100 μl/well of Bright-Glo reagent and incubated at room temperature for 5 minutes before transferring 100 μl/well to a white bottom 96 well plate to read in a luminometer as described in the Bright-Glo Luciferase Assay System protocol (promega).
(A replicon is a self-replicating genome or part of one, used to study replication in cells.)

The test system of series [2] is HCV subgenomic replicon in Huh-7 cells. The experiment in a line: Replicon Assay (Example B), luciferase readout EC50. Type of series: cell-based. As to conditions: Hepatitis C virus. The method, then: The activities of compounds of the invention against HCV in a cellular environment were analysed using a replicon assay as described below.
as §1

Setting [3] is: HCV NS3 protease assay, full length NS3/4a, read-out: Assay A IC50 (μM) average.
Setting [4] is: read-out: IC50 against the protease activity of the full length NS3/4a.
Setting [5] is: Huh-7, replicon assay, luciferase readout, upper value of the cell pair, read-out: Assay B EC50.

Where two headings read alike, the source gives them in different places.

Chain of full length NS3/4a (P26663 1027-1657): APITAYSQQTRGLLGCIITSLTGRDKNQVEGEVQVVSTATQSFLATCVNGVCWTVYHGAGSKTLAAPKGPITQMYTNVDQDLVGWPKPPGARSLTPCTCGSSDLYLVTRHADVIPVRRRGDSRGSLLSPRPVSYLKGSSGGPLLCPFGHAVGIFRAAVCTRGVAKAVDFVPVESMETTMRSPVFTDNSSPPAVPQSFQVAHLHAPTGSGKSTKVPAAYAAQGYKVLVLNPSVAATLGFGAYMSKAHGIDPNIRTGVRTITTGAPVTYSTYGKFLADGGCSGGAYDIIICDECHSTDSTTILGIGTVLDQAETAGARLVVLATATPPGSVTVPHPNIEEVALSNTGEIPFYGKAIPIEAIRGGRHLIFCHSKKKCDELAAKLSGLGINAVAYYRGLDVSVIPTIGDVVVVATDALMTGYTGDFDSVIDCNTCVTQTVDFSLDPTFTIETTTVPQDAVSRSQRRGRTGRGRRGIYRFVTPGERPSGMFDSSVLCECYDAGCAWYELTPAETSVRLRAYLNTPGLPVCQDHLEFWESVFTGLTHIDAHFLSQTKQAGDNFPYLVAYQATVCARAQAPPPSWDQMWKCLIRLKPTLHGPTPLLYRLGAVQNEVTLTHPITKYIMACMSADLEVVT

As usually defined, the CC50 is the concentration that lowers cell viability or growth by half. A low value points to greater toxicity to the cells. A word on the EC50: it is the concentration needed to bring the measured effect to its halfway point. As for `CC[C@@H](N[C@@H](C)CC(N)=O)c1ccc(Cl)c(C(=O)c2ccc(-n3cccn3)nc2)c1F` [Example 139, (3S)-3-{[(1R)-1-(4-chloro-2-fluoro-3-{[6-(1H-pyrazol-1-yl)pyridin-3-yl]carbonyl}phenyl)-propyl]amino}-butanamide], the IC50 at full length NS3/4a (setting [3]) was 0.33 µM; at full length NS3/4a (setting [4]), less than 1 µM. Moreover, the CC50 at 72 h in series [1] is greater than 3000 nM. Further, the EC50 in series [2] (setting [5]) came out at 420 nM.
As to `COc1cc(C(=O)c2c(Cl)ccc([C@H](N[C@@H](C)CC(N)=O)C3CC3)c2F)ccc1C#N` [Example 275, (3S)-3-{[(R)-{4-chloro-3-[(4-cyano-3-methoxyphenyl)carbonyl]-2-fluorophenyl}(cyclopropyl)methyl]amino}butanamide], the IC50 on full length NS3/4a (setting [3]) was found to be 0.13 µM. The same molecule showed a half-maximal cytotoxic concentration (CC50) at 72 h in series [1] greater than 3000 nM. In addition, the concentration for a half-maximal effect (EC50) in series [2] (setting [5]) was 6.7 nM.
In the case of `CC[C@@H](NC(C)(C)CC(N)=O)c1ccc(Cl)c(C(=O)c2ccc(N)nc2)c1F` [Example 250, 3-{[(1R)-1-{3-[(6-aminopyridin-3-yl)carbonyl]-4-chloro-2-fluorophenyl}propyl]amino}-3-methylbutanamide], at full length NS3/4a (setting [3]), the IC50 worked out at 0.095 µM. Further, the CC50 at 72 h in series [1] was greater than 1000 nM. For the same molecule, in series [2] (setting [5]), the 50% effective concentration (EC50) worked out at 29 nM.
As to `CC[C@@H](NCCC(N)=O)c1ccc(Cl)c(C(=O)c2cnc(N)cn2)c1F` [Example 183, 3-{[(1R)-1-{3-[(5-Aminopyrazin-2-yl)carbonyl]-4-chloro-2-fluorophenyl}propyl]amino}propanamide], on full length NS3/4a (setting [3]), the IC50 came out at 0.5 µM. This molecule also had a CC50 at 72 h in series [1] greater than 10000 nM. In addition, the EC50 in series [2] (setting [5]) was 2200 nM.
In the same order, the values of `CC[C@@H](N[C@@H](C)C1(C(N)=O)CC1)c1ccc(Cl)c(C(=O)c2cccnc2)c1F` [Example 132, 1-[(1S)-1-{[(1R)-1-{4-chloro-2-fluoro-3-[(pyridin-3-yl)carbonyl]phenyl}propyl]amino}ethyl]cyclopropane-1-carboxamide] are 0.14 µM, greater than 3000 nM and 25 nM.
The like results for `CCC(NC(C)(C)CO)c1ccc(Cl)c(C(=O)c2ccccc2)c1F` (stereo not drawn) [Example 179, 2-{[1-(3-benzoyl-4-chloro-2-fluorophenyl)-propyl]amino}-2-methylpropan-1-ol] were, in that order, 0.063 µM, greater than 3000 nM and 300 nM.
Take `CC[C@@H](NCCC(N)=O)c1ccc(Cl)c(C(=O)c2cccnc2)c1F` [Example 162, 3-{[(1R)-1-{4-Chloro-2-fluoro-3-[(pyridin-3-yl)carbonyl]phenyl}propyl]amino}propanamide]: the figures for the IC50 at full length NS3/4a (setting [3]) and at full length NS3/4a (setting [4]) were 0.59 µM and less than 1 µM, respectively. This molecule also yielded a CC50 at 72 h in series [1] greater than 3000 nM. Further, the EC50 in series [2] (setting [5]) is greater than 3000 nM.
`CC[C@@H](NCCC(N)=O)c1ccc(Cl)c(C(=O)c2ccc(N)nc2)c1F` [Example 180, 3-{[(1R)-1-{3-[(6-Aminopyridin-3-yl)carbonyl]-4-chloro-2-fluorophenyl}propyl]amino}propanamide]: the IC50 on full length NS3/4a (setting [3]) stood at 0.14 µM. In addition, the CC50 at 72 h in series [1] is greater than 3000 nM. Further, in series [2] (setting [5]), the EC50 is 270 nM.
For `CC[C@@H](N[C@@H](C)CC(N)=O)c1ccc(Cl)c(C(=O)c2ccc(N)nc2)c1F` [Example 81, (3S)-3-{[(1R)-1-{3-[(6-aminopyridin-3-yl)carbonyl]-4-chloro-2-fluorophenyl}propyl]-amino}butanamide], the IC50 on full length NS3/4a (setting [3]) is 0.22 µM. In addition, in series [1], the half-maximal cytotoxic concentration (CC50) at 72 h was greater than 3000 nM. Further, the 50% effective concentration (EC50) was determined as 20 nM in series [2] (Huh-7, pre-determined EC50 used to set concentrations in combination studies, read-out: EC50 (replicon)) and 18 nM in series [2] (setting [5]).
With `CCC[C@@H](N[C@@H](C)CC(N)=O)c1ccc(Cl)c(C(=O)c2ccc(N)nc2)c1F` [Example 258, (3S)-3-{[(1R)-1-{3-[(6-aminopyridin-3-yl)carbonyl]-4-chloro-2-fluorophenyl}butyl]amino} butanamide], the IC50 at full length NS3/4a (setting [3]) was 0.28 µM; on full length NS3/4a (setting [4]), less than 1 µM. For the same molecule, the CC50 at 72 h in series [1] was greater than 1000 nM. In series [2] (setting [5]), the half-maximal effective concentration (EC50) is 20 nM.
On to `CC[C@@H](N[C@@H](C)CC(N)=O)c1ccc(Cl)c(C(=O)c2cccnc2)c1F` [Example 93, (3S)-3-{[(1R)-1-{4-chloro-2-fluoro-3-[(pyridin-3-yl)carbonyl]phenyl}propyl]-amino}butanamide], for which the IC50 on full length NS3/4a (setting [3]) worked out at 0.14 µM. The molecule further yielded a CC50 at 72 h in series [1] greater than 3000 nM. The EC50 in series [2] (setting [5]) stood at 510 nM.
In the same order, the values of `[2H]C([2H])([2H])C([2H])([2H])[C@@H](N[C@@H](C)CC(N)=O)c1ccc(Cl)c(C(=O)c2ccc3c(c2)OCC(=O)N3)c1F` [Example 280, (3S)-3-{[(1R)-1-{4-chloro-2-fluoro-3-[(3-oxo-3,4-dihydro-2H-1,4-benzoxazin-7-yl)carbonyl]phenyl}(2,2,3,3,3-pentadeuteryl)propyl]amino} butanamide] are 0.3 µM, greater than 3000 nM and 25 nM.
Regarding `CC[C@@H](N[C@@H](C)CC(N)=O)c1ccc(C)c(C(=O)c2ccccc2)c1F` [Example 150, (3S)-3-{[(1R)-1-(3-benzoyl-2-fluoro-4-methylphenyl)propyl]-amino}butanamide], the IC50 on full length NS3/4a (setting [3]) worked out at 0.068 µM. This molecule also had a half-maximal cytotoxic concentration (CC50) at 72 h in series [1] greater than 10000 nM. Further, in series [2] (setting [5]), the half-maximal effective concentration (EC50) was found to be 310 nM.
The like results for `CC[C@@H](N[C@@H](C)CC(N)=O)c1ccc(Cl)c(C(=O)c2ccns2)c1F` [Example 108, (3S)-3-{[(1R)-1-{4-chloro-2-fluoro-3-[(1,2-thiazol-5-yl)carbonyl]phenyl}propyl]-amino}butanamide] were, in that order, 0.07 µM, greater than 3000 nM and 270 nM.
The like results for `CC[C@@H](N[C@@H](C)CC(N)=O)c1ccc(OC)c(C(=O)c2cccc(C#N)c2)c1F` [Example 276, (3S)-3-{[(1R)-1-{3-[(3-cyanophenyl)carbonyl]-2-fluoro-4-methoxyphenyl}propyl]amino}butanamide] were, in that order, 0.11 µM, greater than 3000 nM and 27 nM.
Regarding `CC[C@@H](NCCC(N)=O)c1ccc(Cl)c(C(=O)c2ccccc2)c1F` [Example 167, 3-{[(1R)-1-(3-Benzoyl-4-chloro-2-fluorophenyl)propyl]amino}-propanamide], the IC50 was 0.098 µM on full length NS3/4a (setting [3]) and less than 1 µM at full length NS3/4a (setting [4]). In series [1], the CC50 at 72 h was greater than 3000 nM. Further, the EC50 in series [2] (setting [5]) is 630 nM.
By inhibition is commonly meant how much of the control response was suppressed. A high value points to strong suppression. Take `Cc1cc(C(=O)c2c(Cl)ccc([C@H](N[C@@H](C)CC(N)=O)C3CC3)c2F)ccc1N` [Example 262, (3S)-3-{[(R)-{3-[(4-amino-3-methylphenyl)carbonyl]-4-chloro-2-fluorophenyl}-(cyclopropyl)-methyl]-amino}butanamide]: the inhibition at 0.1 µM against full length NS3/4a (@ 0.1 uM) was determined as 32%. This molecule came in with a CC50 at 72 h in series [1] greater than 1000 nM. In addition, the EC50 in series [2] (setting [5]) was determined as 8.5 nM.
Take `CC[C@@H](N)c1ccc(Cl)c(C(=O)c2ccccc2)c1F` [Example 4, (1R)-1-(3-benzoyl-4-chloro-2-fluorophenyl)propan-1-amine]: the IC50 is 0.089 µM at full length NS3/4a (setting [3]) and less than 1 µM on full length NS3/4a (setting [4]). The molecule also returned a cytotoxic concentration (CC50) at 72 h in series [1] greater than 10000 nM. In addition, the EC50 in series [2] (setting [5]) is greater than 10000 nM.
For the molecule `C[C@@H](CC(N)=O)N[C@@H](c1ccc(Cl)c(C(=O)c2ccc(N)c(C#N)c2)c1F)C1CC1` [Example 255, (3S)-3-{[(R)-{3-[(4-amino-3-cyanophenyl)carbonyl]-4-chloro-2-fluorophenyl}(cyclopropyl)methyl]amino}butanamide], at full length NS3/4a (setting [3]), the IC50 was found to be 0.24 µM. Besides, the CC50 at 72 h in series [1] is greater than 1000 nM. The EC50 in series [2] (setting [5]) came to 27 nM.
In the same order, the values of `CC[C@@H](N[C@@H](C)CC(N)=O)c1ccc(Cl)c(C(=O)c2ccc(-n3cc(CO)cn3)nc2)c1F` [Example 159, (3S)-3-{[(1R)-1-[4-chloro-2-fluoro-3-({6-[4-(hydroxymethyl)-1H-pyrazol-1-yl]pyridin-3-yl}carbonyl)phenyl]-propyl]amino}-butanamide] are 0.24 µM, greater than 10000 nM and 100 nM.
In the same order, the values of `C[C@@H](CC(N)=O)N[C@H](CC1CC1)c1ccc(Cl)c(C(=O)c2ccc(N)nc2)c1F` [Example 278, (3S)-3-{[(1R)-1-{3-[(6-aminopyridin-3-yl)carbonyl]-4-chloro-2-fluorophenyl}-2-cyclopropylethyl]amino} butanamide] are 0.5 µM, greater than 3000 nM and 27 nM.

The values above are taken from US9145354B2, “Pharmaceutical compounds” (priority 2011, dated 2015).
